From patent publication US7855294B2, “Cycloalkanopyridine derivative” (Banyu Pharmaceutical Co., Ltd., priority 2004, dated 2010)
pIC50: −log10 of the molar value. Structures can show the parent of a compound that is named as a salt.

Columns and labels:
male ICR (CD-1) mice = assay: Antagonism test: hypokinesis (suppression of motion) induced by a nociceptin agonist; assay type: in vivo; conditions: test compound 1 to 10 mg/kg and nociceptin agonist 1 mg/kg hypodermically; motion for 60 minutes; difference between agonist group and solvent control group set to 100%
Procedure: Using male ICR (CD-1) mice (weighing 20 to 40 g), antagonism to hypokinesis (suppression of motion) induced by a nociceptin agonist was observed. That is, the quantity of motion of each mouse in a 20 cm×30 cm×20 cm cage was measured with an infrared sensor. The test compound (1 to 10 mg/kg) as dissolved in either 0.5% methyl cellulose liquid or a solvent, and a nociceptin agonist (1 mg/kg) were administered to the test mice hypodermically, and the quantity of their motion for 60 minutes was measured. To the control group mice, the solvent only was administered. The evaluation was made by representing the quantity of motion of the mice administered with the test compound by percent, where the difference in the quantity of motion between the nociceptin agonist-administered group and that of the solvent-administered control group during the test time was set to be 100%.

nociceptin receptor ORL1 [1] = molecular target: T1, nociceptin receptor ORL1 (Homo sapiens, UniProt P41146); assay: Nociceptin receptor binding inhibition assay ([125I]Tyr14-Nociceptin, CHO/ORL1 membrane fractions, SPA beads); parameters: expressed in transfected cells; membrane fractions
Procedure: A cDNA that codes for a human nociceptin receptor gene was cloned into an expression vector pCR3 (by Invitrogen) to prepare pCR3/ORL1. Next, pCR3/ORL1 was transfected in CHO cells using a transfectam (by Nippongene) to obtain a stable expression strain (CHO/ORL1 cells) having resistance against 1 mg/ml G418. Membrane fractions were prepared from this stable expression strain to carry out a receptor binding assay. 11 μg of the membrane fraction, 50 pM [^125I]Tyr^14-Nociceptin (by Amersham Pharmacia), 1 mg of wheat germ agglutinin SPA beads (PVT based, by Amersham Pharmacia) and each test compound were suspended in an NC buffer (50 mM Hepes, 10 mM sodium chloride, 1 mM magnesium chloride, 2.5 mM calcium chloride, 0.1% BSA, 0.025% bacitracin, pH 7.4) and incubated at 37° C. for 60 minutes, and then the radioactivity of the culture was determined.

nociceptin receptor ORL1 [2] = molecular target: T1, nociceptin receptor ORL1; assay: Antagonism against nociceptin-elicited G protein activation (GTPγ[35S] binding, CHO/ORL1 membrane); assay type: biochemical; parameters: expressed in transfected cells; membrane preparation
Procedure: CHO cells which stably expressed a nociceptin receptor ORL1 were used to investigate the action of each test compound against nociceptin-elicited G protein activation. A membrane prepared from the CHO/ORL1 cells, 50 nM nociceptin, 200 pM GTPγ[^35S] (by NEN), 1.5 mg of wheat germ agglutinin SPA beads (by Amersham Pharmacia) and each test compound were mixed in a GDP buffer (20 mM Hepes, 100 mM sodium chloride, 10 mM magnesium chloride, 1 mM EDTA, 5 μM GDP, pH 7.4) and incubated at 25° C. for 150 minutes, and then the radioactivity of the culture was determined.

T1 sequence (P41146 whole entry): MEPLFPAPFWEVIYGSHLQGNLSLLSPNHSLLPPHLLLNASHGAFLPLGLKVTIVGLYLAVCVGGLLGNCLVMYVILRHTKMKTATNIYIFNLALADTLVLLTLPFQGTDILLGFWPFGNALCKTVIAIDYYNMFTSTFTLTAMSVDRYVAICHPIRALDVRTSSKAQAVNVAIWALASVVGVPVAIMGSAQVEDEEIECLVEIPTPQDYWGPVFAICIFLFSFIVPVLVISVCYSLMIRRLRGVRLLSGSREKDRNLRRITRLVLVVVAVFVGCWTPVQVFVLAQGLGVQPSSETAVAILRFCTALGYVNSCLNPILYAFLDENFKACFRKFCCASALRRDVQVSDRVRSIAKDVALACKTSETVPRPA

Row | SMILES | melting point | Quantity of Motion (%) (male ICR (CD-1) mice) | pIC50 (nociceptin receptor ORL1 [1]; read-out: IC50 value) | pIC50 (nociceptin receptor ORL1 [2]) | pIC50 (nociceptin receptor ORL1 [1])
1 | O[C@H]1C[C@H](CN2C3CCC2CC2(C3)OCc3cc(F)ncc32)CCc2cccnc21 (stereo partly drawn) (as salt: tartrate) [Example 23, (7R,9S)-7-(6′-aza-5′-fluoro-spiro[8-aza-bicyclo[3.2.1]-octa-3,1′(3′H)-isobenzofuran]-8-ylmethyl)-6,7,8,9-tetrahydro-5H-cyclohepta[b]pyridin-9-ol mono-L-tartrate] | 133 to 141 °C |  |  |  | 
2 | Cc1ccccc1[C@H]1CCN(C[C@@H]2CCc3cccnc3[C@@H](O)C2)C[C@@H]1O.O=C(O)C(O)C(O)C(=O)O (relative stereo) [Example 16, (7R,9S)-7-[(3R*,4R*)-3-hydroxy-4-o-tolyl-piperidin-1-ylmethyl]-6,7,8,9-tetrahydro-5H-cyclohepta[b]pyridin-9-ol mono-L-tartrate] |  | >75 |  |  | 
3 | Cl.O[C@H]1C[C@H](CN2CC[C@H](c3ccccc3Cl)[C@@H](O)C2)CCc2cccnc21 (relative stereo) [Example 31, (7R,9S)-7-[(3R*,4R*)-4-(2-chlorophenyl)-3-hydroxypiperidin-1-ylmethyl]-6,7,8,9-tetrahydro-5H-cyclohepta[b]pyridin-9-ol monohydrochloride] |  | >75 | 8.17 | 8.68 | 
4 | Cl.O[C@@H]1[C@@H](c2ccc(F)cc2Cl)CC2CC[C@@H]1N2C[C@@H]1Cc2cccnc2[C@@H](O)C1 (relative stereo) [Example 71, (6R,8S)-6-[(1S*,2R*,3R*)-3-(2-chloro-4-fluorophenyl)-2-hydroxy-8-azabicyclo[3.2.1]octan-8-ylmethyl]-5,6,7,8-tetrahydroquinolin-8-ol monohydrochloride] | 238 °C (dec.) |  |  | 9.17 | 8.85
5 | Cc1cc(F)ccc1[C@H]1CCN(C[C@@H]2CCc3cccnc3[C@@H](O)C2)C[C@@H]1O (single isomer, unassigned) [Example 17, (7R,9S)-7-[(3R*,4R*)-(4-fluoro-o-tolyl)-3-hydroxypiperidin-1-ylmethyl]-6,7,8,9-tetrahydro-5H-cyclohepta[b]pyridin-9-ol monohydrochloride] |  | >75 |  |  | 
6 | O[C@H]1C[C@H](CN2C3CCC2CC2(C3)OCc3ccccc32)CCc2cccnc21 (stereo partly drawn) [Example 10, (7R,9S)-7-(spiro[8-aza-bicyclo[3.2.1]octa-3,1′(3′H)-isobenzofuran]-8-ylmethyl)-6,7,8,9-tetrahydro-5H-cyclohepta[b]pyridin-9-ol] |  |  |  | 10.10 | 9.43
7 | O[C@H]1C[C@H](CN2C3CCC2CC2(C3)OCc3cc(F)ncc32)CCc2cccnc21 (stereo partly drawn) [Example 23, (7R,9S)-7-(6′-aza-5′-fluoro-spiro[8-aza-bicyclo[3.2.1]-octa-3,1′(3′H)-isobenzofuran]-8-ylmethyl)-6,7,8,9-tetrahydro-5H-cyclohepta[b]pyridin-9-ol mono-L-tartrate] |  |  |  | 8.92 | 9.28
8 | CC1(C)OC2(CCN(C[C@@H]3Cc4cccnc4[C@@H](O)C3)CC2)c2ccccc21.O=C(O)C(O)C(O)C(=O)O [Example 25, (6R,8S)-6-(3,3-dimethyl-spiro[isobenzofuran-1(3H),4′-piperidin]-1′-ylmethyl)-5,6,7,8-tetrahydro-quinolin-8-ol mono-L-tartrate] |  | >75 |  | 8.38 | 8.60
9 | O=C(O)C(O)C(O)C(=O)O.O[C@H]1C[C@H](CN2CCC(F)(c3ccccc3Cl)CC2)Cc2cccnc21 [Example 29, (6R,8S)-6-[4-(2-chlorophenyl)-4-fluoropiperidin-1-ylmethyl]-5,6,7,8-tetrahydroquinolin-8-ol mono-L-tartrate] |  | >75 | 8.39 | 8.33 | 
10 | Cl.O[C@H]1C[C@H](CN2CC[C@H](c3ccc(F)cc3Cl)[C@@H](O)C2)Cc2cccnc21 [Example 33, (6R,8S)-6-[(3R,4R)-4-(2-chloro-4-fluorophenyl)-3-hydroxypiperidin-1-ylmethyl]-5,6,7,8-tetrahydroquinolin-8-ol monohydrochloride] |  | >75 |  |  | 
11 | CC1(C)OC2(CC3CCC(C2)N3C[C@@H]2Cc3cccnc3[C@@H](O)C2)c2cnc(F)cc21 (stereo partly drawn) [Example 70, (6R,8S)-6-[(5′-fluoro-3′,3′-dimethyl-3′H-6′-azaspiro[8-azabicyclo[3.2.1]octane-3,1′-isobenzofuran]-8-yl)methyl]-5,6,7,8-tetrahydroquinolin-8-ol mono-L-tartrate] |  |  |  | 9.49 | 9.41
